Test results as given in patent US20030104063A1, “Pharmaceutical compositions of dispersions of amorphous drugs mixed with polymers” (priority 2001, published 2003).

Tests used:
Format in all cases: physicochemical
[1] = In vitro dissolution test of Drug 2 compositions in PBS with sodium taurocholic acid/POPC (microcentrifuge, HPLC); conditions: for Drug 2 Concentration: PBS with sodium taurocholic acid/POPC, 37° C.
Protocol: Example 5 was prepared by combining the drug/matrix dispersion of Drug 2 and polyethylene glycol with the concentration-enhancing polymer HPMCAS. Example 5 was evaluated in an in vitro dissolution test using a microcentrifuge method. In this test, 18 mg of the dispersion was added to each of two microcentrifuge tubes. The tubes were placed in a 37° C. temperature-controlled chamber, and 1.8 mL PBS containing 7.3 mM sodium taurocholic acid and 1.4 mM 1-palmitoyl-2-oleyl-sn-glycero-3-phosphocholine, with 7.2 mg HPMCAS-MF, was added. The tests were sampled as described in Example 1, and analyzed using HPLC. Samples were collected at 4, 10, 20, 40, 90, and 1200 minutes.

[2] = In vitro dissolution test of Drug 5 compositions in MFDS pH 6.5 (microcentrifuge, HPLC); conditions: for Drug 5 Concentration: MFDS pH 6.5, 37° C.
Protocol: Example 10 was prepared by combining the above amorphous dispersion with the concentration-enhancing polymer hydroxypropyl methylcellulose (HPMC E3 Prem LV, Dow Chemical Co.). 1.4 mg of the amorphous dispersion was added to microcentrifuge tubes. The tubes were placed in a 37° C. temperature-controlled chamber, and 1.8 mL PBS containing 0.5 wt % sodium taurocholic acid/1-palmitoyl-2-oleyl-sn-glycero-3-phosphocholine (MFDS, pH 6.5) and 0.4 mg HPMC was added. The tests were sampled as described in Example 1, and analyzed using HPLC.
For Control C12, in vitro dissolution tests were performed using the precedures described above except that 1.4 mg of the amorphous dispersion was tested without concentration-enhancing polymer (HPMC) in the test solution.

[3] = In vitro dissolution test of Drug 4 compositions in PBS (microcentrifuge, HPLC); parameters: AUC: concentration or dose not given beside the values; conditions: for Drug 4 Concentration: PBS, 37° C.
Protocol: Tests were performed in duplicate. The tubes were placed in a 37° C. temperature-controlled chamber, and 1.8 mL PBS with 7.2 mg PVA was added. The tests were sampled as described in Example 1, and analyzed using HPLC. HPLC analysis was performed using a Zorbax SB C18 column, with a mobile phase of 35 vol. % water and 65 vol. % methanol. UV absorbance of Drug 4 was measured at 297 nm.

[4] = In vitro dissolution test of Drug 3 compositions in PBS (microcentrifuge, HPLC); conditions: for Drug 3 Concentration: PBS, 37° C.
Protocol: Example 6 was prepared by combining the dispersion with the concentration-enhancing polymer HPMCAS. 7.2 mg of the dispersion of Example 6 was added to microcentrifuge tubes. Tests were performed in duplicate. The tubes were placed in a 37° C. temperature-controlled chamber, and 1.8 mL PBS with 5.4 mg HPMCAS-MF was added. The tests were sampled as described in Example 1, and analyzed using HPLC.

Compound: CCC(CC)Oc1c(C)cnc(Oc2c(C)cc(C)cc2C)c1C [Control C7, 3,5-dimethyl-4-(3′-pentoxy)-2-(2′, 4′, 6′-trimethylphenoxy) pyridine]
- Drug 2 Concentration ([1]; 0 min): 0 µg/mL
- Drug 2 Concentration ([1]; 4 min): 16 µg/mL
- Drug 2 Concentration ([1]; 10 min): 33 µg/mL
- Drug 2 Concentration ([1]; 20 min): 32 µg/mL
- Drug 2 Concentration ([1]; 40 min): 30 µg/mL
- Drug 2 Concentration ([1]; 90 min): 39 µg/mL
- Drug 2 Concentration ([1]; 1200 min): 37 µg/mL
- AUC ([1]; Drug 2, 0 min): 0 µg·min/mL
- AUC ([1]; Drug 2, 4 min): 0 µg·min/mL
- AUC ([1]; Drug 2, 10 min): 200 µg·min/mL
- AUC ([1]; Drug 2, 20 min): 500 µg·min/mL
- AUC ([1]; Drug 2, 40 min): 1,100 min*μg/mL
- AUC ([1]; Drug 2, 90 min): 2,800 min*μg/mL
- AUC ([1]; Drug 2, 1200 min): 45,000 min*μg/mL
- AUC90 ([1]; Drug 2, area under the concentration versus time curve after 90 minutes): 2800 µg·min/mL
- C1200 ([1]; Drug 2 concentration at 1200 minutes): 37 µg/mL
- Cmax,90 ([1]; maximum concentration of Drug 2 in solution during the first 90 minutes): 39000 ng/mL

Compound: CS(=O)(=O)O.O=C1Cc2cc(CCN3CCN(c4nsc5ccccc45)CC3)c(Cl)cc2N1 [Control C13]
- Drug 5 Concentration ([2]; 0 min): 0 µg/mL
- Drug 5 Concentration ([2]; 4 min): 16 µg/mL
- Drug 5 Concentration ([2]; 10 min): 8 µg/mL
- Drug 5 Concentration ([2]; 20 min): 5 µg/mL
- Drug 5 Concentration ([2]; 40 min): 4 µg/mL
- Drug 5 Concentration ([2]; 90 min): 4 µg/mL
- Drug 5 Concentration ([2]; 1200 min): 4 µg/mL
- AUC ([2]; Drug 5, 0 min): 0 µg·min/mL
- AUC ([2]; Drug 5, 4 min): 0 µg·min/mL
- AUC ([2]; Drug 5, 10 min): 100 µg·min/mL
- AUC ([2]; Drug 5, 20 min): 200 µg·min/mL
- AUC ([2]; Drug 5, 40 min): 300 µg·min/mL
- AUC ([2]; Drug 5, 90 min): 500 µg·min/mL
- AUC ([2]; Drug 5, 1200 min): 4,900 min*μg/mL
- AUC90 ([2]; Drug 5, after 90 minutes): 500 µg·min/mL
- C1200 ([2]; Drug 5 concentration at 1200 minutes): 4 µg/mL
- Cmax,90 ([2]; maximum concentration of Drug 5 during the first 90 minutes): 16000 ng/mL

Compound: O=C(N[C@@H](Cc1ccccc1)[C@@H](O)C(=O)N1C[C@@H](O)[C@@H](O)C1)c1cc2cc(Cl)ccc2[nH]1 [Control C11, 5-chloro-1H-indole-2-carboxylic acid [(1S)-benzyl-3-((3R, 4S)-dihydroxypyrrolidin-1-yl-)-(2R)-hydroxy-3-oxypropyl] amide]
- Drug 4 Concentration ([3]; 0 min): 0 µg/mL
- Drug 4 Concentration ([3]; 4 min): 360 µg/mL
- Drug 4 Concentration ([3]; 10 min): 382 µg/mL
- Drug 4 Concentration ([3]; 20 min): 372 µg/mL
- Drug 4 Concentration ([3]; 40 min): 345 µg/mL
- Drug 4 Concentration ([3]; 90 min): 262 µg/mL
- Drug 4 Concentration ([3]; 1200 min): 154 µg/mL
- AUC ([3]; Drug 4, 0 min): 0 µg·min/mL
- AUC ([3]; Drug 4, 4 min): 700 µg·min/mL
- AUC ([3]; Drug 4, 10 min): 2,900 min*μg/mL
- AUC ([3]; Drug 4, 20 min): 6,700 min*μg/mL
- AUC ([3]; Drug 4, 40 min): 13,900 min*μg/mL
- AUC ([3]; Drug 4, 90 min): 29,100 min*μg/mL
- AUC ([3]; Drug 4, 1200 min): 259,800 min*μg/mL
- AUC90 ([3]; Drug 4, after 90 minutes): 29,100 min*μg/mL
- C1200 ([3]; Drug 4 concentration at 1200 minutes): 154 µg/mL
- Cmax,90 ([3]; maximum concentration of Drug 4 during the first 90 minutes): 382000 ng/mL

Compound: CCOC(=O)N1c2ccc(C(F)(F)F)cc2[C@@H](N(Cc2cc(C(F)(F)F)cc(C(F)(F)F)c2)C(=O)OC)C[C@H]1CC [Control C9, [2R,4S] 4-[(3,5-bis-trifluoromethyl-benzyl)-methoxycarbonyl-amino]-2-ethyl-6-trifluoromethyl-3,4-dihydro-2H-quinoline-1-carboxylic acid ethyl ester]
- Drug 3 Concentration ([4]; 0 min): <1 µg/mL
- Drug 3 Concentration ([4]; 4 min): <1 µg/mL
- Drug 3 Concentration ([4]; 10 min): <1 µg/mL
- Drug 3 Concentration ([4]; 20 min): <1 µg/mL
- Drug 3 Concentration ([4]; 40 min): <1 µg/mL
- Drug 3 Concentration ([4]; 90 min): <1 µg/mL
- Drug 3 Concentration ([4]; 1200 min): <1 µg/mL
- AUC ([4]; Drug 3, 0 min): <1 µg·min/mL
- AUC ([4]; Drug 3, 4 min): <1 µg·min/mL
- AUC ([4]; Drug 3, 10 min): <1 µg·min/mL
- AUC ([4]; Drug 3, 20 min): <1 µg·min/mL
- AUC ([4]; Drug 3, 40 min): <1 µg·min/mL
- AUC ([4]; Drug 3, 90 min): <1 µg·min/mL
- AUC ([4]; Drug 3, 1200 min): <1 µg·min/mL
- AUC90 ([4]; Drug 3, after 90 minutes): <1 µg·min/mL
- C1200 ([4]; Drug 3 concentration at 1200 minutes): <1 µg/mL
- Cmax,90 ([4]; maximum concentration of Drug 3 during the first 90 minutes): <1000 ng/mL
